This passage reports inhibition results from US6858638B2, “Substituted indazoles, compositions containing them, method of production and use” (Aventis Pharma S.A., priority 2002, dated 2005).

The target in the assay is CDK2/cyclinE kinase (Homo sapiens, UniProt P24941). Put plainly: CDK2/cyclinE kinase phosphorylation of Rb-biotinylated peptide, scintillation plates. The format is biochemical. The settings on record: read-out: CDK2 % inhib at 10 μM. On the procedure:
The inhibition of the CDK2/cyclinE kinase is evaluated by measuring the phosphorylation of the peptide substrate Rb-biotinylated, detected by […], in 96-well scintillation plates (Flashplates) coated with streptavidin.
Each point is assayed in duplicate.
Sequence of the Rb-biotinylated peptide: Biotin-[…]-OH
Protocol: • 1. Preparation of the substrate: fresh solution at 1 mg/ml in PBS. • 2. Introduce 4 μg per well into the scintillation plate. • 3. Incubate for 2 hours at ambient temperature. • 4. Prepare series of dilutions at 1 mM, 300 μM, 100 μM, 30 μM and 10 μM in DMSO from a stock solution of inhibitor at 10 mM in DMSO. • 5. Wash the scintillation plate with 3 times 300 μl of PBS to remove the unbound peptide substrate. • 6. Add the CDK2/cyclinE kinase: 200 ng per well, in 90 μl of kinase buffer (with the exception of the “without enzyme” control wells). • 7. Add the test inhibitor to each of the wells, at a final concentration for 100 μl of 10 μM, 3 μM, 1 μM, 0.3 μM and 0.1 μM. • 8. Agitate the scintillation plate gently for 1 minute. • 9. Incubate for 30 minutes on ice. • 10. Initiate the reaction with 10 μl of kinase buffer having a final concentration per well of 1 μM of cold ATP and of 1 μCi of ATP-^33P. • 11. […] Indirect measurement of the radioactivity corresponding to the incorporation of ATP-^33P, originating from the kinase, into the phosphorylation site of Rb. […]

Each structure is given as a SMILES string.

For the compound `Nc1n[nH]c2ccc(NS(=O)(=O)c3cccc(F)c3)cc12` [Example 26, N-(3-Amino-1H-indazol-5-yl)-3-fluorobenzenesulfonamide], the inhibition at 10 µM was determined as 39%.
The result for `CS(=O)(=O)c1ccccc1S(=O)(=O)Nc1ccc2[nH]nc(-c3ccc(Cl)cc3)c2c1` [Example 30, N-[3-(4-Chlorophenyl)-1H-indazol-5-yl]-2-methylsulfonylbenzenesulfonamide] reads 73%.
